“Also recorded” adds a separate entry of the source.
Experiments:
Format in all cases: biochemical
G9a = G9a (Homo sapiens, UniProt Q96KQ7); experiment: selectivity, SAHH-coupled assay G9a; details: 100 μM
Protocol: (§1) A fluorescence-based SAHH-coupled assay was applied to study the effect of the compound on methyltransferase activity of NTMT1, SETD7, G9a, NNMT, tbPRMT7 and SAHH. For NTMT1, the assay was performed in a final well volume of 100 μL: 25 mM Tris (pH=7.5), 50 mM KCl, 0.01% Triton X-100, 5 μM.
(§2) SAHH, 0.1 μM NTMT1, 3 μM AdoMet, and 10 μM ThioGlo4. After incubation for 10 min with the inhibitor, reactions were initiated by the addition of 0.5 μM GPKRIA peptide, and the reaction was monitored for 15 min. For SETD7, the assay was performed in a final well volume of 100 μL: 25 mM potassium phosphate buffer (pH=7.6), 0.01% Triton X-100, 5 μM SAHH, 1 μM SETD7, 2 μM AdoMet, and 10 μM ThioGlo1. After incubation for 10 min with the inhibitor, reactions were initiated by the addition of 90 μM H3-21 peptide, and the reaction was monitored for 15 min. […] After incubation for 10 min with the inhibitor, reactions were initiated by the addition of 10 μM nicotinamide, and the reaction was monitored for 18 min. […] After incubation for 10 min with the inhibitor, reactions were initiated by the addition of 60 μM H4-21 peptide, and the reaction was monitored for 15 min. […]
(§3) All experiments were performed in duplicate. Fluorescence was monitored on a BMG CLARIOstar microplate reader with excitation at 380 nm and emission at 505 nm. […]

PRMTs = experiment: radioactivity assay, all tested PRMTs
Protocol: (§4) The selectivity of compounds YD1113 and YD1290 on PRMTs were performed by Reaction Biology Corp.
(§5) After validating the benzyl urea moiety as an unconventional homocysteine mimic of SAH for PRMTs, it was hypothesized that incorporating the benzyl urea moiety into the original pan PRMT inhibitor II757 would build a potent bisubstrate inhibitor. […] To enable a stable tri-substitution, the sulfur atom with a nitrogen atom was replaced. YD1290 was synthesized following the reported methods 9, 15 and tested in a radioactivity assay for PRMTs (FIG. 6b).

PRMT4 = target: T1, PRMT4 (Homo sapiens, UniProt Q86X55); experiment: selectivity of YD1113/YD1290 on PRMT panel, PRMT4
T1 sequence (Q86X55 1-608): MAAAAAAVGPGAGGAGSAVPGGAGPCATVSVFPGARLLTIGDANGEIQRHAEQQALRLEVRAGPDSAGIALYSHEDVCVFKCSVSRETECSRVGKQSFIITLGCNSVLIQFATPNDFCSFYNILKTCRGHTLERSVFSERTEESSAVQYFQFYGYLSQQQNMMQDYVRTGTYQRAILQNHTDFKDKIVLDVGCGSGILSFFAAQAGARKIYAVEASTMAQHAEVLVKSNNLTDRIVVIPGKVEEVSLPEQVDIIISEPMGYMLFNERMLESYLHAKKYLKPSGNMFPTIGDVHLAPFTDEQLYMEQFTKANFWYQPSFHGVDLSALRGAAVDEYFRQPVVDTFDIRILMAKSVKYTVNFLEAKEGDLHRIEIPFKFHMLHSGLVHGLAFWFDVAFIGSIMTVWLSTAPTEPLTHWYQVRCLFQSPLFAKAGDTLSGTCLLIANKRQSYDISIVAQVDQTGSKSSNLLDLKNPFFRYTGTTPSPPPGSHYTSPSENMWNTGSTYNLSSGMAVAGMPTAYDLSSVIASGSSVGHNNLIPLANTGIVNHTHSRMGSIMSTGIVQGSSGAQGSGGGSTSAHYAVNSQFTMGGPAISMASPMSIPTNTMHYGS
Protocol: as §4
(§6) Next, the selectivity of YD1113 was investigated on a panel of PRMTs at 10 μM.
as §5

PRMT1 [1] = target: T2, PRMT1 (Homo sapiens, UniProt Q99873); experiment: selectivity of YD1113/YD1290 on PRMT panel, PRMT1; details: vs YD1113
T2 construct: made in house
Protocol: as §4, §6, §5

SETD7 = target: T3, SETD7 (Homo sapiens, UniProt Q8WTS6); experiment: selectivity, SAHH-coupled assay SETD7; details: 100 μM
T3 construct: H3-21 peptide as substrate
Protocol: as §1, §2, §3

PRMT6 = PRMT6 (Homo sapiens, UniProt Q96LA8); experiment: selectivity of YD1113/YD1290 on PRMT panel, PRMT6; details: vs YD1113
Protocol: as §4, §6, §5

SAHH = experiment: selectivity, SAHH; details: 100 μM
Protocol: The effect of the inhibitors on the coupled enzyme, SAHH, was also evaluated. The assay was performed in a final well volume of 100 μL: 25 mM Tris (pH=7.5), 50 mM KCl, 0.01% Triton X-100, 0.1 μM SAHH, and 15 μM ThioGlo1. After incubation for 10 min with the compound, 0.5 μM SAH was added to initiate the reactions.
All experiments were performed in duplicate. Fluorescence was monitored on a BMG CLARIOstar microplate reader with excitation at 380 nm and emission at 505 nm.
To examine the selectivity, the inhibition of YD1290 on four inhouse methyltransferases, including protein N-terminal methyltransferase 1 (NTMT1), nicotinamide N-methyltransferase (NNMT), and two protein lysine methyltransferases PKMT (G9a and SETD7) were tested.

type I PRMTs = experiment: inhibition of type I PRMTs (summary)
Protocol: as §4

PRMT3 = PRMT3 (Homo sapiens, UniProt O60678); experiment: selectivity of YD1113/YD1290 on PRMT panel, PRMT3; details: vs YD1113
Protocol: as §4, §6, §5

PRMT8 = PRMT8 (Homo sapiens, UniProt Q9NR22); experiment: selectivity of YD1113/YD1290 on PRMT panel, PRMT8; details: vs YD1113
Protocol: as §4, §6, §5

NTMT1 = target: T4, NTMT1 (Homo sapiens, UniProt Q9BV86); experiment: selectivity, SAHH-coupled assay NTMT1; details: 100 μM
T4 construct: GPKRIA peptide as substrate
Protocol: as §1, §2, §3

NNMT = target: T5, NNMT (Homo sapiens, UniProt P40261); experiment: selectivity, SAHH-coupled assay NNMT; details: 100 μM
T5 construct: nicotinamide as substrate
Protocol: as §1, §2, §3

PRMT1 [2] = target: T2, PRMT1; experiment: inhibition mechanism study on PRMT1, SAHH-coupled fluorescence; details: role: inhibitor
Protocol: The inhibition mechanism of YD1290 was study on PRMT1 with the fluorescence-based SAHH-coupled assay. Varying concentrations of SAM (from 5 to 40 μM) with 4 μM fixed concentration of H4-21 or varying concentration of H4-21 (from 4 to 32 μM) with 5 μM fixed concentration of SAM were included in reactions at concentration of YD1290 ranging from 0.15 nM to 10 μM.
All the IC50 values were determined in triplicate. Fluorescence was monitored on a BMG CLARIOstar microplate reader with excitation 380 nm and emission 505 nm. Data were processed by using GraphPad Prism software 8.0.
To confirm the potent inhibition activities of YD1290 on type I PRMTs resulting from bisubstrate characteristics, its inhibition mechanism on PRMT1 was determined through the SAHH-coupled fluorescence-based assay.

T2 sequence (Q99873 whole entry, species assumed): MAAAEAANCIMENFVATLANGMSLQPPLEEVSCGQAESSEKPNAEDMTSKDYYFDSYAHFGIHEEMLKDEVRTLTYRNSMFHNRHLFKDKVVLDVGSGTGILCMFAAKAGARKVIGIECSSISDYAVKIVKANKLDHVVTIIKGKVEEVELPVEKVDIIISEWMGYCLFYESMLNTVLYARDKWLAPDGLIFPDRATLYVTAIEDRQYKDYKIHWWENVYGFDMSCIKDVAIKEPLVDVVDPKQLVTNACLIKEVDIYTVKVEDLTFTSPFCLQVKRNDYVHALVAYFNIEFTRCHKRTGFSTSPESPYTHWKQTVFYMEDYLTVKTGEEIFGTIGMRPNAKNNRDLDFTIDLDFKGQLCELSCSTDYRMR
T4 sequence (Q9BV86 whole entry): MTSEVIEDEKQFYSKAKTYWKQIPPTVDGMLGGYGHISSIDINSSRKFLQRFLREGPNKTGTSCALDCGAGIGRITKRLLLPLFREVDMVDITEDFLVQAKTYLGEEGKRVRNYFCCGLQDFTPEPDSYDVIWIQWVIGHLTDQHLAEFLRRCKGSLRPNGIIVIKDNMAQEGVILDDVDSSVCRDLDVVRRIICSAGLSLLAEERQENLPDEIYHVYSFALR
PRMT8, sequence (Q9NR22 whole entry, species assumed): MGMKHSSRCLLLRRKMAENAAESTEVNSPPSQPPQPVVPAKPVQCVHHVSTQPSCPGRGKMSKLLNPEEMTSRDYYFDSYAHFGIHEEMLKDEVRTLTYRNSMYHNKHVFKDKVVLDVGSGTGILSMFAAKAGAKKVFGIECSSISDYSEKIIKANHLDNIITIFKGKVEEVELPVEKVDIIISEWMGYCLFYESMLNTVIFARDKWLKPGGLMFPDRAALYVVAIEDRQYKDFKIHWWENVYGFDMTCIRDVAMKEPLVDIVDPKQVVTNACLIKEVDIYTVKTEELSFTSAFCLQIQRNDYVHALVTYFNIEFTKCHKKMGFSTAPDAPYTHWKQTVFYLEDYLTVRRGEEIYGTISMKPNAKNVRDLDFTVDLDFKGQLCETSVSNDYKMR
PRMT6, sequence (Q96LA8 whole entry, species assumed): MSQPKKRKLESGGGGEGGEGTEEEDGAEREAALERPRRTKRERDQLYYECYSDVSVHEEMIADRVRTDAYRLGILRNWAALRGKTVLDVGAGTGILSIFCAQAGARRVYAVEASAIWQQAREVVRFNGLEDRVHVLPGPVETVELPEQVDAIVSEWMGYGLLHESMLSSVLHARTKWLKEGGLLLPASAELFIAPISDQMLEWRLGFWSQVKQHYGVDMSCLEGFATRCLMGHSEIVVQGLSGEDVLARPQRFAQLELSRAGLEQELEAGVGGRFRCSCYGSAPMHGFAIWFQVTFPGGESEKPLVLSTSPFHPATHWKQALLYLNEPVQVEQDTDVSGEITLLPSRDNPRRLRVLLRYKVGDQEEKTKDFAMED
T5 sequence (P40261 whole entry): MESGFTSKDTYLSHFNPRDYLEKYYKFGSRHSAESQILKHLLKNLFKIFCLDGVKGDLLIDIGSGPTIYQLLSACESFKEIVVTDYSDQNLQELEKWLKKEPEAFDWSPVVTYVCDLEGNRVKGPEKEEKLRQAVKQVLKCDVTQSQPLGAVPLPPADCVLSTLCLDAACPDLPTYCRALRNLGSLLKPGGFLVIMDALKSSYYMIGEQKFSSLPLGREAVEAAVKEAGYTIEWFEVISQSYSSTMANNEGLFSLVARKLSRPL
G9a, sequence (Q96KQ7 whole entry): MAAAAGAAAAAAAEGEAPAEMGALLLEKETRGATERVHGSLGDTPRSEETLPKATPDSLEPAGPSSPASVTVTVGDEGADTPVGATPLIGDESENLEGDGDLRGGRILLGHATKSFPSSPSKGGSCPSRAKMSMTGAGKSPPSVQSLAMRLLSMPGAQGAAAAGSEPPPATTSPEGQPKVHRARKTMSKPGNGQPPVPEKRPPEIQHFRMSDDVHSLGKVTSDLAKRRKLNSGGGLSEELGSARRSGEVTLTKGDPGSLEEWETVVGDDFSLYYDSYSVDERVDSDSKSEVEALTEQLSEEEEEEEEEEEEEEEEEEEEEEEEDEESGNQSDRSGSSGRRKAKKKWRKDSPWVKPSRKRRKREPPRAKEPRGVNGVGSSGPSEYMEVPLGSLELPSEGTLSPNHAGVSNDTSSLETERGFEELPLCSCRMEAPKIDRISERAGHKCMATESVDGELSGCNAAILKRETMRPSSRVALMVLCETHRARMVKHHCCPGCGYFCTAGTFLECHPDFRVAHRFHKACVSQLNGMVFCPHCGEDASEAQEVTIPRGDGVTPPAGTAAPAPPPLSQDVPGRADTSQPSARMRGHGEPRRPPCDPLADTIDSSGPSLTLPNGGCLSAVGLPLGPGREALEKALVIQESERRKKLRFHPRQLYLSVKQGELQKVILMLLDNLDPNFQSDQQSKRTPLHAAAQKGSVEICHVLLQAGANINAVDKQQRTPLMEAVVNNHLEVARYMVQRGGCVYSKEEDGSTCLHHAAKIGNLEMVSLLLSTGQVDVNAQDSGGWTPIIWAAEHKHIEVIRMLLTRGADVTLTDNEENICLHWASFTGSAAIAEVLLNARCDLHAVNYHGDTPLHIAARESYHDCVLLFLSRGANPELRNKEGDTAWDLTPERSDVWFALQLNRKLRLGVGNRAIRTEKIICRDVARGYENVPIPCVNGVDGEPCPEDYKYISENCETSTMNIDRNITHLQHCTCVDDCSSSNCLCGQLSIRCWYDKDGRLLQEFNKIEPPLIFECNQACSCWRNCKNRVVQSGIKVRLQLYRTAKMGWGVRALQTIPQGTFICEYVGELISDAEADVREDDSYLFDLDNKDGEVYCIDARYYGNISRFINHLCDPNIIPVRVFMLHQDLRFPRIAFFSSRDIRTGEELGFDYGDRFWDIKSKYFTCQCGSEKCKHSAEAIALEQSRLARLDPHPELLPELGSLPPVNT
PRMT3, sequence (O60678 whole entry, species assumed): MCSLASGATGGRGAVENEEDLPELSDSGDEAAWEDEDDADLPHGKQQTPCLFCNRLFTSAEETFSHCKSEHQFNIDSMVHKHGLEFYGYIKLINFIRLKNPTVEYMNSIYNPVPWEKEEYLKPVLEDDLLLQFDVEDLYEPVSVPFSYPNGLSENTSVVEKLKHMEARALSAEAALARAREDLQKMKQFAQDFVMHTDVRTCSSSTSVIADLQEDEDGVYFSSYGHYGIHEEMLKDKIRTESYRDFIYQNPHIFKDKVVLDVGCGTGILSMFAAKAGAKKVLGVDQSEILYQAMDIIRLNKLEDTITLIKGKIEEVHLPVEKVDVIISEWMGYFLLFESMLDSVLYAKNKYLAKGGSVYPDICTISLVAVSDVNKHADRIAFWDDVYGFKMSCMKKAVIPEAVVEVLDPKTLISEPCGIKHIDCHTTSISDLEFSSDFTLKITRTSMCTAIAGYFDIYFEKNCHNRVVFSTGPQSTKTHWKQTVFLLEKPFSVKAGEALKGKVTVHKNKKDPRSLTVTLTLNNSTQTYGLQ
T3 sequence (Q8WTS6 whole entry): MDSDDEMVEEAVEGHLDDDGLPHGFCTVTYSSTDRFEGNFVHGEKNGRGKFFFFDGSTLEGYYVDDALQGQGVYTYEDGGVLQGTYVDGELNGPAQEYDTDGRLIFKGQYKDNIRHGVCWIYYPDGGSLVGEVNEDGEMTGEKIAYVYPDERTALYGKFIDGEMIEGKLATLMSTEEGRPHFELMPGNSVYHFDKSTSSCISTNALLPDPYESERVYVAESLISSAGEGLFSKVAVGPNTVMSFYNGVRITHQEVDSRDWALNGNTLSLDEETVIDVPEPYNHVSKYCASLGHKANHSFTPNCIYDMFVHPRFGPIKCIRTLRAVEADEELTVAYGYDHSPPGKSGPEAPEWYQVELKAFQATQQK

- PRMT4 activity (PRMT4; 1.5 nM, radioactivity assay): completely abolished PRMT4 activity
- fold potency to PRMT4 compared to YD1113 (PRMT4; vs YD1113): > 80 fold
- fold potency to PRMT1 compared to YD1113 (PRMT1 [1]): > 80 fold
- fold potency to PRMT6 compared to YD1113 (PRMT6): > 80 fold
- fold potency to PRMT3 compared to YD1113 (PRMT3): > 80 fold
- fold potency to PRMT8 compared to YD1113 (PRMT8): > 80 fold
- inhibition mechanism vs SAM, PRMT1 (PRMT1 [2]; SAM 5 to 40 μM, H4-21 4 μM fixed): SAM-site competitive inhibitor of PRMT1
SMILES: N=C(NCCCN(CCNC(=O)NCc1ccccc1)C[C@H]1O[C@@H](n2cnc3c(N)ncnc32)[C@H](O)[C@@H]1O)Nc1cccc(Br)c1 [YD1290]
- inhibition of G9a (G9a): did not display any significant inhibition
- potency to all tested PRMTs (PRMTs): demonstrated potency to all tested PRMTs
- inhibition of SETD7 (SETD7): did not display any significant inhibition
- inhibition of SAHH (SAHH): did not display any significant inhibition
- IC50 (type I PRMTs): < 5 nM
- inhibition of NTMT1 (NTMT1): did not display any significant inhibition
- inhibition of NNMT (NNMT): did not display any significant inhibition
- inhibition mechanism vs peptide substrate, PRMT1 (PRMT1 [2]; H4-21 4 to 32 μM, SAM 5 μM fixed): slightly increased when the ratio of peptide/Km increased; also recorded: peptide-site competitive inhibitor of PRMT1

Source: US20260306527A1, “PRMT INHIBITOR COMPOUNDS AND THE USES THEREOF” (Purdue Research Foundation, priority 2023, published 2026)
